In US20080064689A1, “3-[4-(6-Pyridin-3-Yl)-3-Phenyl] -5-(1H-1,2,3-Triazol-1-Ylmethyl)-1,3-Oxazolidin-2-Ones as Antibacterial Agents” (AstraZeneca AB, priority 2004, published 2008):
Structures can show the parent of a compound that is named as a salt.

| Compound | melting point |
| --- | --- |
| Cl.O=C1O[C@@H](Cn2ccnn2)CN1c1ccc(-c2ccc(C3=NO[C@@H](CN4CCOCC4)C3)nc2)c(F)c1 | 239 to 245 °C |
| Cl.O=C1O[C@@H](Cn2ccnn2)CN1c1ccc(-c2ccc(C3=NO[C@H](CN4CCOCC4)C3)nc2)c(F)c1 | 242 °C |
| O=C1O[C@@H](Cn2ccnn2)CN1c1ccc(-c2ccc(C3=NO[C@H](CN4CCCC4)C3)nc2)c(F)c1 (as salt: hydrochloride) [Example 12] | 260 to 263 °C |
| O=C1O[C@@H](Cn2ccnn2)CN1c1ccc(-c2ccc(C3=NO[C@H](CN4CCCCC4)C3)nc2)c(F)c1 (as salt: hydrochloride) [Example 13, (5R)-3-(3-Fluoro-4-{6-[(5S)-5-(piperidin-1-ylmethyl)-4,5-dihydroisoxazol-3-yl]pyridin-3-yl}phenyl)-5-(1H-1,2,3-triazol-1-ylmethyl)-1,3-oxazolidin-2-one] | 211 to 215 °C |
| O=C1O[C@@H](Cn2ccnn2)CN1c1ccc(-c2ccc(C3=NO[C@H](CN4CCOCC4)C3)nc2)c(F)c1 (as salt: sulfonic acid salt) [Example 3c, (5R)-3-(3-Fluoro-4-{6-[(5S)-5-(morpholin-4-ylmethyl)-4,5-dihydroisoxazol-3-yl]pyridin-3-yl}phenyl)-5-(1H-1,2,3-triazol-1-ylmethyl)-1,3-oxazolidin-2-one, methanesulfonic acid salt] | 165 to 168 °C |
| CN(C)C[C@@H]1CC(c2ccc(-c3ccc(N4C[C@H](Cn5ccnn5)OC4=O)cc3F)cn2)=NO1 [Example 1, (5R)-3-[4-(6-{(5S)-5-[(Dimethylamino)methyl]-4,5-dihydroisoxazol-3-yl}pyridin-3-yl)-3-fluorophenyl]-5-(1H-1,2,3-triazol-1-ylmethyl)-1,3-oxazolidin-2-one] | 212 °C |
| CNC[C@@H]1CC(c2ccc(-c3ccc(N4C[C@H](Cn5ccnn5)OC4=O)cc3F)cn2)=NO1 [Example 2] | 215 °C |
| Br.O=C1O[C@@H](Cn2ccnn2)CN1c1ccc(-c2ccc(C3=NO[C@H](CN4CCOCC4)C3)nc2)c(F)c1 [Example 3b] | > 280 °C (dec.) |
| CN1CCN(C[C@@H]2CC(c3ccc(-c4ccc(N5C[C@H](Cn6ccnn6)OC5=O)cc4F)cn3)=NO2)CC1 [Example 4, (5R)-3-[3-Fluoro-4-(6-{(5S)-5-[(4-methylpiperazin-1-yl)methyl]-4,5-dihydroisoxazol-3-yl}pyridin-3-yl)phenyl]-5-(1H-1,2,3-triazol-1-ylmethyl)-1,3-oxazolidin-2-one] | 218 °C |
| O=C1O[C@@H](Cn2ccnn2)CN1c1ccc(-c2ccc(C3=NO[C@H](CNCCO)C3)nc2)c(F)c1 [Example 5, (5R)-3-{3-Fluoro-4-[6-((5S)-5-{[(2-hydroxyethyl)amino]methyl}-4,5-dihydroisoxazol-3-yl)pyridin-3-yl]phenyl}-5-(1H-1,2,3-triazol-1-ylmethyl)-1,3-oxazolidin-2-one] | 190 °C |
| CCCCNC[C@@H]1CC(c2ccc(-c3ccc(N4C[C@H](Cn5ccnn5)OC4=O)cc3F)cn2)=NO1 [Example 6, (5R)-3-[4-(6-{(5S)-5-[(Butylamino)methyl]-4,5-dihydroisoxazol-3-yl}pyridin-3-yl)-3-fluorophenyl]-5-(1H-1,2,3-triazol-1-ylmethyl)-1,3-oxazolidin-2-one] | 230 °C |
| O=C1O[C@@H](Cn2ccnn2)CN1c1ccc(-c2ccc(C3=NO[C@H](CN4CCSCC4)C3)nc2)c(F)c1 [Example 7, (5R)-3-(3-Fluoro-4-{6-[(5S)-5-(thiomorpholin-4-ylmethyl)-4,5-dihydroisoxazol-3-yl]pyridin-3-yl}phenyl)-5-(1H-1,2,3-triazol-1-ylmethyl)-1,3-oxazolidin-2-one] | 222 to 225 °C |
| O=C1O[C@@H](Cn2ccnn2)CN1c1ccc(-c2ccc(C3=NO[C@H](CN4CC[S+]([O-])CC4)C3)nc2)c(F)c1 [Example 8, (5R)-3-[3-Fluoro-4-(6-{(5S)-5-[(1-oxidothiomorpholin-4-yl)methyl]-4,5-dihydroisoxazol-3-yl}pyridin-3-yl)phenyl]-5-(1H-1,2,3-triazol-1-ylmethyl)-1,3-oxazolidin-2-one] | 218 to 220 °C |
| O=C1O[C@@H](Cn2ccnn2)CN1c1ccc(-c2ccc(C3=NO[C@H](CN4CCS(=O)(=O)CC4)C3)nc2)c(F)c1 [Example 9, (5R)-3-[4-(6-{(5S)-5-[(1,1-Dioxidothiomorpholin-4-yl)methyl]-4,5-dihydroisoxazol-3-yl}pyridin-3-yl)-3-fluorophenyl]-5-(1H-1,2,3-triazol-1-ylmethyl)-1,3-oxazolidin-2-one] | 200 to 203 °C |
| CN(CCO)C[C@@H]1CC(c2ccc(-c3ccc(N4C[C@H](Cn5ccnn5)OC4=O)cc3F)cn2)=NO1 [Example 10, (5R)-3-[3-Fluoro-4-[6-((5S)-5-{[(2-hydroxyethyl)(methyl)amino]methyl]-4,5-dihydroisoxazol-3-yl)pyridin-3-yl]phenyl}-5-(1H-1,2,3-triazol-1-ylmethyl)-1,3-oxazolidin-2-one] | 153 to 156 °C |
| O=C1O[C@@H](Cn2ccnn2)CN1c1ccc(-c2ccc(C3=NO[C@@H](CN4CCOCC4)C3)nc2)c(F)c1 [Example 11, (5R)-3-(3-Fluoro-4-{6-[(5R)-5-(morpholin-4-ylmethyl)-4,5-dihydroisoxazol-3-yl]pyridin-3-yl}phenyl)-5-(1H-1,2,3-triazol-1-ylmethyl)-1,3-oxazolidin-2-one] | 239 to 245 °C |

The next lines start with the values.

| melting point | Compound |
| --- | --- |
| 250 to 255 °C | O=C1O[C@@H](Cn2ccnn2)CN1c1ccc(-c2ccc(C3=NO[C@H](CN4CC=CCC4)C3)nc2)c(F)c1 (as salt: hydrochloride) [Example 14, (5R)-3-(4-{6-[(5S)-5-(3,6-Dihydropyridin-1(2H)-ylmethyl)-4,5-dihydroisoxazol-3-yl]pyridin-3-yl}-3-fluorophenyl)-5-(1H-1,2,3-triazol-1-ylmethyl)-1,3-oxazolidin-2-one] |
| 202 to 204 °C | CN(C)CC(=O)NC[C@@H]1CC(c2ccc(-c3ccc(N4C[C@H](Cn5ccnn5)OC4=O)cc3F)cn2)=NO1 (as salt: hydrochloride) [Example 17, N^1-{[(5S)-3-(5-{2-Fluoro-4-[(5R)-2-oxo-5-(1H-1,2,3-triazol-1-ylmethyl)-1,3-oxazolidin-3-yl]phenyl}pyridin-2-yl)-4,5-dihydroisoxazol-5-yl]methyl}-N^2,N^2-dimethylglycinamide hydrochloride] |
| 246 to 249 °C | O=C(NC[C@@H]1CC(c2ccc(-c3ccc(N4C[C@H](Cn5ccnn5)OC4=O)cc3F)cn2)=NO1)[C@@H]1CCCN1 (as salt: hydrochloride) [Example 20, N-{[(5S)-3-(5-{2-Fluoro-4-[(5R)-2-oxo-5-(1H-1,2,3-triazol-1-ylmethyl)-1,3-oxazolidin-3-yl]phenyl}pyridin-2-yl)-4,5-dihydroisoxazol-5-yl]methyl}-L-prolinamide hydrochloride] |
| 130 to 134 °C | CC(C)[C@@H](N)C(=O)NC[C@@H]1CC(c2ccc(-c3ccc(N4C[C@H](Cn5ccnn5)OC4=O)cc3F)cn2)=NO1 (as salt: hydrochloride) [Example 21, N^1-{[(5S)-3-(5-{2-Fluoro-4-[(5R)-2-oxo-5-(1H-1,2,3-triazol-1-ylmethyl)-1,3-oxazolidin-3-yl]phenyl}pyridin-2-yl)-4,5-dihydroisoxazol-5-yl]methyl}-D-valinamide hydrochloride] |
| 242 to 244 °C | C[C@H](N)C(=O)NC[C@@H]1CC(c2ccc(-c3ccc(N4C[C@H](Cn5ccnn5)OC4=O)cc3F)cn2)=NO1 (as salt: hydrochloride) [Example 22, N^1-{[(5S)-3-(5-{2-fluoro-4-[(5R)-2-oxo-5-(1H-1,2,3-triazol-1-ylmethyl)-1,3-oxazolidin-3-yl]phenyl}pyridin-2-yl)-4,5-dihydroisoxazol-5-yl]methyl}-L-alaninamide hydrochloride] |
| 122 to 132 °C | CN(C)CC(=O)N(C)C[C@@H]1CC(c2ccc(-c3ccc(N4C[C@H](Cn5ccnn5)OC4=O)cc3F)cn2)=NO1 (as salt: hydrochloride) [Example 23, N^1-{[(5S)-3-(5-{2-fluoro-4-[(5R)-2-oxo-5-(1H-1,2,3-triazol-1-ylmethyl)-1,3-oxazolidin-3-yl]phenyl}pyridin-2-yl)-4,5-dihydroisoxazol-5-yl]methyl}-N^1,N^2,N^2-trimethylglycinamide] |
| 215 to 217 °C | N[C@@H](CCC(=O)O)C(=O)NC[C@@H]1CC(c2ccc(-c3ccc(N4C[C@H](Cn5ccnn5)OC4=O)cc3F)cn2)=NO1 (racemic) [Example 29, N^1-{[(5S)-3-(5-{2-Fluoro-4-[(SR)-2-oxo-5-(1H-1,2,3-triazol-1-ylmethyl)-1,3-oxazolidin-3-yl]phenyl}pyridin-2-yl)-4,5-dihydroisoxazol-5-yl]methyl}-L-α-glutamine] |
| 228 to 230 °C | CC(C)(C)OC(=O)NC[C@@H]1CC(c2ccc(-c3ccc(N4C[C@H](Cn5ccnn5)OC4=O)cc3F)cn2)=NO1 [Example 15, tert-Butyl {[(5S)-3-(5-{2-fluoro-4-[(5R)-2-oxo-5-(1H-1,2,3-triazol-1-ylmethyl)-1,3-oxazolidin-3-yl]phenyl}pyridin-2-yl)-4,5-dihydroisoxazol-5-yl]methyl}carbamate] |
| 180 °C | CN(CC(=O)OC(C)(C)C)C[C@@H]1CC(c2ccc(-c3ccc(N4C[C@H](Cn5ccnn5)OC4=O)cc3F)cn2)=NO1 [Example 18, tert-Butyl N-{[(5S)-3-(5-{2-fluoro-4-[(5R)-2-oxo-5-(1H-1,2,3-triazol-1-ylmethyl)-1,3-oxazolidin-3-yl]phenyl}pyridin-2-yl)-4,5-dihydroisoxazol-5-yl]methyl}-N-methylglycinate] |
| 212 to 218 °C | CN(CC(=O)O)C[C@@H]1CC(c2ccc(-c3ccc(N4C[C@H](Cn5ccnn5)OC4=O)cc3F)cn2)=NO1 [Example 19, N-{[(5S)-3-(5-{2-Fluoro-4-[(5R)-2-oxo-5-(1H-1,2,3-triazol-1-ylmethyl)-1,3-oxazolidin-3-yl]phenyl}pyridin-2-yl)-4,5-dihydroisoxazol-5-yl]methyl}-N-methylglycine] |
